The values that follow come from patent US9084828B2, “Oligomer-protein tyrosine kinase inhibitor conjugates” (Nektar Therapeutics, priority 2009, dated 2015).

The target of one test is T1, PKG1-beta (Homo sapiens, UniProt Q13976).
T1 sequence (Q13976 1-686 isoform Q13976-2): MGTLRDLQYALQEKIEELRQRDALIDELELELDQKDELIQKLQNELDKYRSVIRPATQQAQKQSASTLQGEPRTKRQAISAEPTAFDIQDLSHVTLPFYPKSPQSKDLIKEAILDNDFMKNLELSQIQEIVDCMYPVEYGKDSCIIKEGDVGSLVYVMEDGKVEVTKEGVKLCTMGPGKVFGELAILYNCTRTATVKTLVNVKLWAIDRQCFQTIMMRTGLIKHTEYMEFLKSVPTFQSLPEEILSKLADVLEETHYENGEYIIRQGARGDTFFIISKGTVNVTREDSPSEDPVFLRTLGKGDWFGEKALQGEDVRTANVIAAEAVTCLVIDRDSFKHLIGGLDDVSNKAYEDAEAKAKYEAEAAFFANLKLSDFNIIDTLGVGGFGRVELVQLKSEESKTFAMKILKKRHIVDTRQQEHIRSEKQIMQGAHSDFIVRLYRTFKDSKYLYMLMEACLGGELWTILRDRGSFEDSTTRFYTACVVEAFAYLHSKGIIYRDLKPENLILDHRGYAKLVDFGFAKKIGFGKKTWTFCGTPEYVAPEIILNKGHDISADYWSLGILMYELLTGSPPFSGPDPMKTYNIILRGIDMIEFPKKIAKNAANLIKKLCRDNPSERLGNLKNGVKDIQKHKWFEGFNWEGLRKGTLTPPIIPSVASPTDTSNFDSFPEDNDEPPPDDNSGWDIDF
In words: Activity against various protein tyrosine kinases: PKG1-beta. Type of test: biochemical.

Another test addresses MSK1 (Homo sapiens, UniProt O75582). Kind of test: Activity against various protein tyrosine kinases: MSK1. Type of test: biochemical.
Another test concerns the target AurB (Homo sapiens, UniProt Q96GD4). In words: Activity against various protein tyrosine kinases: AurB. Type of test: biochemical.
Another test concerns the target ABL (Homo sapiens, UniProt P00519). Kind of test: ABL tyrosine kinase inhibition, off-chip incubation mobility-shift kinase assay (Caliper LABCHIP 3000). The settings on record: for IC50: ABL, ATP at Km 14 μM, unit inferred; for ABL AVG % Activity at Specific Concentration: average of replicate wells.
The target in a further test is ABL(H396P) (Homo sapiens, UniProt P00519, H396P). In words: Activity against various protein tyrosine kinases: ABL(H396P). The format is biochemical. As to the method:
Using techniques know those of ordinary skill in the art, compounds were tested for activity against various protein tyrosine kinases.

The target of another test is MET (Homo sapiens, UniProt P08581). Kind of test: Activity against various protein tyrosine kinases: MET. The format is biochemical.
For another test, the target named is T2, PRAK (Homo sapiens, UniProt Q8IW41).
T2 sequence (Q8IW41 1-473): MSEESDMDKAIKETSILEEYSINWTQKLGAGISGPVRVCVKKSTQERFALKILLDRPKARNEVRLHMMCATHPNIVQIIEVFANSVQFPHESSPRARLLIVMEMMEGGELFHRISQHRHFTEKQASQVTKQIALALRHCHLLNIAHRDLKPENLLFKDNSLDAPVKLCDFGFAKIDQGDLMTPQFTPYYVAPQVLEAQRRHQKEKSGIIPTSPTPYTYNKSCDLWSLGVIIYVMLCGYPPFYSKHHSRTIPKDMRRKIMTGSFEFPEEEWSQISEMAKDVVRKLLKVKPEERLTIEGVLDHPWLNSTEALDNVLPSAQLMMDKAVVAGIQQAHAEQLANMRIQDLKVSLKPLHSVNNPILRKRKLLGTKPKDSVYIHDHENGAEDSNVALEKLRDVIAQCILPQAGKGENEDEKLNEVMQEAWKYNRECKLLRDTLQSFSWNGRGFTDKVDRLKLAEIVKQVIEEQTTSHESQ
Kind of test: Activity against various protein tyrosine kinases: PRAK. Type of test: biochemical.

Another test has as its target T3, p38-delta (Homo sapiens, UniProt O15264).
T3 sequence (O15264 1-365): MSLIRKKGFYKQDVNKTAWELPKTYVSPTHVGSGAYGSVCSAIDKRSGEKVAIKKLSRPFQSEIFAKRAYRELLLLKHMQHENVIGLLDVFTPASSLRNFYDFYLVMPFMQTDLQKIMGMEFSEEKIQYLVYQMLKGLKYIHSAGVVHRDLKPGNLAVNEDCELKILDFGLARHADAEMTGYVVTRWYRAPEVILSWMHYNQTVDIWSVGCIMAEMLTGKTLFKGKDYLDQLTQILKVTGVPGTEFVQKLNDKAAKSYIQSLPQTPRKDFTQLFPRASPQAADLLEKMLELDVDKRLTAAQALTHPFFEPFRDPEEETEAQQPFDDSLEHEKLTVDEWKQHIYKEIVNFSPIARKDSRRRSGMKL
Kind of test: Activity against various protein tyrosine kinases: p38-delta. Type of test: biochemical.

The mark [1] stands for this setting: at 1.0E−09 (concentration unit not given).
The mark [2] stands for this setting: at 1.0E−10 (concentration unit not given).
The mark [3] stands for this setting: at 1.0E−11 (concentration unit not given).
[4] abbreviates: at 3.0E−09 (concentration unit not given).
[5] abbreviates: at 3.0E−10 (concentration unit not given).
Where [6] appears, read: at 3.0E−11 (concentration unit not given).

MET, sequence (P08581 25-1390): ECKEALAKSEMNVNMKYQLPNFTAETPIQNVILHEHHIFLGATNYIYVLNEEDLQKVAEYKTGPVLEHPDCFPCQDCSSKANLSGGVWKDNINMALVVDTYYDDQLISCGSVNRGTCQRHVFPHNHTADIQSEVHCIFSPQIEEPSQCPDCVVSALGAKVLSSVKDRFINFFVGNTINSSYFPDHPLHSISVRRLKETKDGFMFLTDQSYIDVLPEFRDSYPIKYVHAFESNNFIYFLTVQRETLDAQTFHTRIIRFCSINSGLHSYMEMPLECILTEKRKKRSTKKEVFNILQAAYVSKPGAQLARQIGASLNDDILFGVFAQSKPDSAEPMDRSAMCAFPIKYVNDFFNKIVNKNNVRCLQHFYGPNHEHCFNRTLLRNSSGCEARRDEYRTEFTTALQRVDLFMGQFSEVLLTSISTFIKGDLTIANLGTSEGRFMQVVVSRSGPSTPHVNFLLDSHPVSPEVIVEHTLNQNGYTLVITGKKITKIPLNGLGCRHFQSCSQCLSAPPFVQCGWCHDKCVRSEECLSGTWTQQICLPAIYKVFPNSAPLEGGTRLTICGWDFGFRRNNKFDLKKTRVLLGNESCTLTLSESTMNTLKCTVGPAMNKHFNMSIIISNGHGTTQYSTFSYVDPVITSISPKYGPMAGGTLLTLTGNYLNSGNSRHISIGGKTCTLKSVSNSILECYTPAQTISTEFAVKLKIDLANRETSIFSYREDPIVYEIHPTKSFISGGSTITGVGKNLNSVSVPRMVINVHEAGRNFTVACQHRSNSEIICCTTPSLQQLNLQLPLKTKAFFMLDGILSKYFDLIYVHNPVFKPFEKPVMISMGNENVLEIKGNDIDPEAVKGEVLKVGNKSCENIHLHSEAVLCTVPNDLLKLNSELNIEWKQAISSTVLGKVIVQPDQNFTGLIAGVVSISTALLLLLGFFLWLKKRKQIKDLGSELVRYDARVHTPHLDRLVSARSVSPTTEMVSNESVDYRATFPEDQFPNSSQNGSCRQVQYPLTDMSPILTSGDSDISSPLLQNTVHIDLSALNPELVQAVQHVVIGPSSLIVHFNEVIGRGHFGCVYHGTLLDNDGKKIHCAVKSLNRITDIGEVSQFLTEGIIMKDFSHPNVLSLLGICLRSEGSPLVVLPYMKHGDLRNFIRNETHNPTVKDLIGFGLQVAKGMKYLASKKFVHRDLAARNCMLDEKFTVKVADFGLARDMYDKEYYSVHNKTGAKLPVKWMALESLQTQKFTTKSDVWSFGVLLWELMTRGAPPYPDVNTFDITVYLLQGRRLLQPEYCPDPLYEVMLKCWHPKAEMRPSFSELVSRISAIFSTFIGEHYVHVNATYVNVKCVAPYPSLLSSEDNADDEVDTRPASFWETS
MSK1, sequence (O75582 whole entry, species assumed): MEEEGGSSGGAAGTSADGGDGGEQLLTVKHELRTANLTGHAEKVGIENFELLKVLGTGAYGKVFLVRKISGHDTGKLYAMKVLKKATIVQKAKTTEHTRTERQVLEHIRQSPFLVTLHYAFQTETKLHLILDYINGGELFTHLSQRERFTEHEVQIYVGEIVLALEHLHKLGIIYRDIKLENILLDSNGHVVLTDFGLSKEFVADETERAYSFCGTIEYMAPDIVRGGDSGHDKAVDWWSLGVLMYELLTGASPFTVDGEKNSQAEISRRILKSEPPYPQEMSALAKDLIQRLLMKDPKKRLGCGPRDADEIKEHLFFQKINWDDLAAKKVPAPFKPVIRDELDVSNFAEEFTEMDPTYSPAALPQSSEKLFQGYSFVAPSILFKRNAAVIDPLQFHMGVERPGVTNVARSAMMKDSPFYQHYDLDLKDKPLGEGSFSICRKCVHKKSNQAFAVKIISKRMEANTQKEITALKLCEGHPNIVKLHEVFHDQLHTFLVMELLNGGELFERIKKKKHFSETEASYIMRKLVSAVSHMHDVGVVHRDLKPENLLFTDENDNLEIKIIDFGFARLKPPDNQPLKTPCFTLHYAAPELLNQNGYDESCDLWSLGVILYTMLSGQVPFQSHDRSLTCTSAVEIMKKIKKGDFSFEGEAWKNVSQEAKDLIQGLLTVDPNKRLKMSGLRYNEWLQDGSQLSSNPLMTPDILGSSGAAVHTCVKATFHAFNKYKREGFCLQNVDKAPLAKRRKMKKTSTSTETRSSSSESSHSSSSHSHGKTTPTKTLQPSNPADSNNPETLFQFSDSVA
AurB, sequence (Q96GD4 whole entry): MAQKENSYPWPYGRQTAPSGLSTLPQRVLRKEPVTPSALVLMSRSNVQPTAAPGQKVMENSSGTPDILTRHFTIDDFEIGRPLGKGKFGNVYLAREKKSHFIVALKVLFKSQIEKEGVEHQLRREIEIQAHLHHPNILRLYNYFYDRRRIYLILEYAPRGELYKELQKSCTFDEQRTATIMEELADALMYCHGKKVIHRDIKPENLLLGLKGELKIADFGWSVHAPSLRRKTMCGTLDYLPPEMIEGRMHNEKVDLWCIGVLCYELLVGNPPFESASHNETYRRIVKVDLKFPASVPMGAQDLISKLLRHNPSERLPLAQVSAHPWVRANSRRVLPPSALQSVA

Broadly, the % Inhibition is the drop in the measured response relative to a control, in per cent. In general, IC50 refers to the point on the concentration scale where inhibition reaches its midpoint. For `COCCOCCOCCOCCOCCOCCOCCNC(=O)OCCN1CCN(c2cc(Nc3ncc(C(=O)Nc4c(C)cccc4Cl)s3)nc(C)n2)CC1` [mPEG7-NHCOO-Dasatinib], the “% Inhibition at 10 nM” value at PKG1-beta is listed as −3%; on MSK1, 3%; on AurB it was 0%; at ABL(H396P) it was 99%; on MET, 1%; at PRAK it was 8%. The “% Inhibition at 10 nM” value on p38-delta is 0%. For the same compound, the “% Inhibition at 1 μM” value at PKG1-beta was −3%; on MSK1 it was 5%; on AurB it was 4%; on ABL(H396P) it was 99%; on MET, 1%; on PRAK, 0%. For the same compound, the “% Inhibition at 1 μM” value at p38-delta was 0%. The IC50 at ABL came out at 0.32 nM. Moreover, the “ABL AVG % Activity at Specific Concentration” value is 4% at ABL (setting [1]); 80% on ABL (setting [2]); 98% at ABL (setting [3]); −1% at ABL (setting [4]); 48% at ABL (setting [5]); 91% at ABL (setting [6]).
Turning to `COCCOCCOCCNC(=O)OCCN1CCN(c2cc(Nc3ncc(C(=O)Nc4c(C)cccc4Cl)s3)nc(C)n2)CC1` [mPEG3-NHCOO-Dasatinib], the “% Inhibition at 10 nM” value on PKG1-beta is listed as −2%; on MSK1, 2%; at AurB, −1%; at ABL(H396P), 99%; at MET, 3%; on PRAK, 6%. The “% Inhibition at 10 nM” value on p38-delta stood at 0%. For the same compound, the “% Inhibition at 1 μM” value is reported as 0% at PKG1-beta; 1% on MSK1; 4% on AurB; 99% on ABL(H396P); 0% at MET; 4% on PRAK. Besides, the “% Inhibition at 1 μM” value on p38-delta worked out at 2%. Also, the IC50 on ABL turned out to be 0.3 nM. Moreover, the “ABL AVG % Activity at Specific Concentration” value on ABL (setting [1]) is 4%; on ABL (setting [2]), 81%; on ABL (setting [3]) it was 99%; on ABL (setting [4]), 0%; on ABL (setting [5]), 47%; on ABL (setting [6]), 95%.
